# From patent US20250368634A1, “PHENYL AMIDE COMPOUNDS AND METHODS OF USE” (SCHRÖDINGER, INC., priority 2022, published 2025)
# Target: SOS1-KRas (G12C) (Homo sapiens (Human), UniProt Q07889)
# Test: SOS1-KRas (G12C) FRET Assay
# Assay type: binding
# Details: not given
# SOS1-KRas (G12C), sequence (Q07889 564-1049, stated change not applied): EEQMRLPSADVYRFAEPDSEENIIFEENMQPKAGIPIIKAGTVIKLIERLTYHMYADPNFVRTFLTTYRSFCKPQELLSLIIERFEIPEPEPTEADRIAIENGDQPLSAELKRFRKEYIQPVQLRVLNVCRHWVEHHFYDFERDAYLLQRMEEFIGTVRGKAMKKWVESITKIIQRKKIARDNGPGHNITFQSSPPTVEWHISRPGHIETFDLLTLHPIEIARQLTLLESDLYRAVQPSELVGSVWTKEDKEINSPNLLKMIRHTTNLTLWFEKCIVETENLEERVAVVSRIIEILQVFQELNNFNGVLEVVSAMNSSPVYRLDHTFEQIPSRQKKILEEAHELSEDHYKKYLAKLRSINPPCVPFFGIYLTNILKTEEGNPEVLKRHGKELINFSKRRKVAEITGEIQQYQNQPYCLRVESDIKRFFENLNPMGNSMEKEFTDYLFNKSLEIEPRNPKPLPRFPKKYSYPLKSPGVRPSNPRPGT
row,IC50,Compound
1,112 nM,"C[C@@H](NC(=O)c1cc(N2CC[C@@]23CCOC3)c(F)cc1NC1CCN(C)CC1)c1cccc(C(F)F)c1F (single isomer, unassigned) [Example 34]"
2,81.5 nM,"C[C@@H](NC(=O)c1cc(N2CC[C@]23CCOC3)c(F)cc1NC1CCN(C)CC1)c1cccc(C(F)F)c1F (single isomer, unassigned) [Example 35]"
3,97.5 nM,"C[C@@H]1CC(F)(F)CN1c1cc(C(=O)N[C@H](C)c2cccc(C(F)F)c2F)c(NC2CCN(C)CC2)cc1F (single isomer, unassigned) [Example 36]"
4,20.2 nM,"C[C@@H](NC(=O)c1cc(N2CCOCC2)c(F)cc1NC1CCN(C)CC1)c1cccc(C(F)F)c1F [Example 1, (R)—N-(1-(3-(difluoromethyl)-2-fluorophenyl)ethyl)-4-fluoro-2-((1-methylpiperidin-4-yl)amino)-5-morpholinobenzamide]"
5,24.3 nM,"C[C@@H](NC(=O)c1cc(N2CCN(C)CC2)c(F)cc1NC1CCN(C)CC1)c1cccc(C(F)F)c1F [Example 5, (R)—N-(1-(3-(difluoromethyl)-2-fluorophenyl)ethyl)-4-fluoro-5-(4-methylpiperazin-1-yl)-2-((1-methylpiperidin-4-yl)amino)benzamide]"
6,88 nM,"C[C@@H](NC(=O)c1cc(N2CC3CC(C2)O3)c(F)cc1NC1CCN(C)CC1)c1cccc(C(F)F)c1F [Example 6, 5-(6-oxa-3-azabicyclo[3.1.1]heptan-3-yl)-N—((R)-1-(3-(difluoromethyl)-2-fluorophenyl)ethyl)-4-fluoro-2-((1-methylpiperidin-4-yl)amino)benzamide]"
7,27.9 nM,"C[C@@H](NC(=O)c1cc(N2CCn3nccc3C2)c(F)cc1NC1CCN(C)CC1)c1cccc(C(F)F)c1F [Example 7, (R)—N-(1-(3-(difluoromethyl)-2-fluorophenyl)ethyl)-5-(6,7-dihydropyrazolo[1,5-a]pyrazin-5 (4H)-yl)-4-fluoro-2-((1-methylpiperidin-4-yl)amino)benzamide]"
8,94 nM,"C[C@@H](NC(=O)c1cc(O[C@@H]2CCOC2)c(F)cc1NC1CCN(C)CC1)c1cccc(C(F)F)c1F [Example 9, N—((R)-1-(3-(difluoromethyl)-2-fluorophenyl)ethyl)-4-fluoro-2-((1-methylpiperidin-4-yl)amino)-5-(((R)-tetrahydrofuran-3-yl)oxy)benzamide]"
9,149 nM,"Cc1c([C@@H](C)NC(=O)c2cc(-c3cnn(C)c3)c(F)cc2NC2CCN(C)CC2)cccc1C(F)(F)F [Example 11, (R)-4-fluoro-5-(1-methyl-1H-pyrazol-4-yl)-N-(1-(2-methyl-3-(trifluoromethyl)phenyl)ethyl)-2-((1-methylpiperidin-4-yl)amino)benzamide]"
10,99.4 nM,"C[C@@H](NC(=O)c1cc(N2C[C@@H]3C[C@H]2CO3)c(F)cc1NC1CCN(C)CC1)c1cccc(C(F)F)c1F [Example 19, 5-((1S,4S)-2-oxa-5-azabicyclo[2.2.1]heptan-5-yl)-N—((R)-1-(3-(difluoromethyl)-2-fluorophenyl)ethyl)-4-fluoro-2-((1-methylpiperidin-4-yl)amino)benzamide]"

row,Compound,IC50
1,"C[C@@H](NC(=O)c1cc(-c2ccncc2)c(F)cc1N[C@H]1CN2CCC1CC2)c1cccc(C(F)F)c1F (single isomer, unassigned) [Example 58]",7.9 nM
2,"C[C@@H](NC(=O)c1cc(-c2ccncc2)c(F)cc1N[C@@H]1CN2CCC1CC2)c1cccc(C(F)F)c1F (single isomer, unassigned) [Example 59]",25.7 nM
3,"C[C@@H](NC(=O)c1cc(N2CCOCC2)c(F)cc1N[C@H]1CN2CCC1CC2)c1cccc(C(F)F)c1F [Example 15, N—((R)-1-(3-(difluoromethyl)-2-fluorophenyl)ethyl)-4-fluoro-5-morpholino-2-(((R)-quinuclidin-3-yl)amino)benzamide]",12.9 nM
4,"C[C@@H](NC(=O)c1cc(N2CCOCC2)c(F)cc1N[C@@H]1CN2CCC1CC2)c1cccc(C(F)F)c1F [Example 16, N—((R)-1-(3-(difluoromethyl)-2-fluorophenyl)ethyl)-4-fluoro-5-morpholino-2-(((S)-quinuclidin-3-yl)amino)benzamide]",41.6 nM

# Same assay, conditions: inhibition of SOS1:KRAS interaction; 0.5 nM His10-SOS1 (res. 564-1049), 2.5 nM GST-KRAS (res. 1-169, G12C); 2 hrs at RT
row,IC50,Compound
1,39.6 nM,"C[C@@H](NC(=O)c1cc(N2CC[C@@]3(CCOC3)C2)c(F)cc1NC1CCN(C)CC1)c1cccc(C(F)F)c1F (single isomer, unassigned) [Example 30]"
2,40.4 nM,"C[C@@H](NC(=O)c1cc(N2CC[C@]3(CCOC3)C2)c(F)cc1NC1CCN(C)CC1)c1cccc(C(F)F)c1F (single isomer, unassigned) [Example 31]"
3,70.7 nM,"C[C@H](CN(C)C)Nc1cc(F)c(N2CCOCC2)cc1C(=O)N[C@H](C)c1cccc(C(F)F)c1F (single isomer, unassigned) [Example 49]"
4,199 nM,"C[C@@H](CN(C)C)Nc1cc(F)c(N2CCOCC2)cc1C(=O)N[C@H](C)c1cccc(C(F)F)c1F (single isomer, unassigned) [Example 50]"
5,99.5 nM,"C[C@@H](NC(=O)c1cc(N2C[C@H]3C[C@@H]2CO3)c(F)cc1NC1CCN(C)CC1)c1cccc(C(F)F)c1F [Example 2, 5-((1R,4R)-2-oxa-5-azabicyclo[2.2.1]heptan-5-yl)-N—((R)-1-(3-(difluoromethyl)-2-fluorophenyl)ethyl)-4-fluoro-2-((1-methylpiperidin-4-yl)amino)benzamide]"
6,56.9 nM,"Cc1c([C@@H](C)NC(=O)c2cc(N3CCOCC3)c(F)cc2NC2CCN(C)CC2)cccc1C(F)(F)F [Example 3, (R)-4-fluoro-N-(1-(2-methyl-3-(trifluoromethyl)phenyl)ethyl)-2-((1-methylpiperidin-4-yl)amino)-5-morpholinobenzamide]"
7,15 nM,"C[C@@H](NC(=O)c1cc(N2CCOCC2)c(C#N)cc1NC1CCN(C)CC1)c1cccc(C(F)F)c1F [Example 4, (R)-4-cyano-N-(1-(3-(difluoromethyl)-2-fluorophenyl)ethyl)-2-((1-methylpiperidin-4-yl)-amino)-5-morpholinobenzamide]"
8,74.5 nM,"Cc1c([C@@H](C)NC(=O)c2cc(N3CC4(C3)CS(=O)(=O)C4)c(F)cc2NC2CCN(C)CC2)cccc1C(F)(F)F [Example 8, (R)-5-(2,2-dioxido-2-thia-6-azaspiro[3.3]heptan-6-yl)-4-fluoro-N-(1-(2-methyl-3-(trifluoromethyl)phenyl)ethyl)-2-((1-methylpiperidin-4-yl)amino)benzamide]"
9,71.6 nM,"C[C@@H](NC(=O)c1cc(O[C@H]2CCOC2)c(F)cc1NC1CCN(C)CC1)c1cccc(C(F)F)c1F [Example 10, N—((R)-1-(3-(difluoromethyl)-2-fluorophenyl)ethyl)-4-fluoro-2-((1-methylpiperidin-4-yl)amino)-5-(((S)-tetrahydrofuran-3-yl)oxy)benzamide]"
10,67.2 nM,"Cc1c([C@@H](C)NC(=O)c2cc(N3CCOCC3)c(Cl)cc2NC2CCN(C)CC2)cccc1C(F)(F)F [Example 13, (R)-4-chloro-N-(1-(2-methyl-3-(trifluoromethyl)phenyl)ethyl)-2-((1-methylpiperidin-4-yl)amino)-5-morpholinobenzamide]"
11,21.7 nM,"C[C@@H](NC(=O)c1cc(N2CCOCC2)c(F)cc1NC1CCNCC1)c1cccc(C(F)F)c1F [Example 14, (R)—N-(1-(3-(difluoromethyl)-2-fluorophenyl)ethyl)-4-fluoro-5-morpholino-2-(piperidin-4-ylamino)benzamide]"
12,98.9 nM,"C[C@@H](NC(=O)c1cc(N2CCOCC2)c(F)cc1N[C@@H]1[C@@H]2C[C@H]1CN(C)C2)c1cccc(C(F)F)c1F [Example 17, N—((R)-1-(3-(difluoromethyl)-2-fluorophenyl)ethyl)-4-fluoro-2-(((1R,5S,6s)-3-methyl-3-azabicyclo[3.1.1]heptan-6-yl)amino)-5-morpholinobenzamide]"
13,17.8 nM,"C[C@@H](NC(=O)c1cc(N2CCOCC2)c(F)cc1N[C@H]1[C@@H]2C[C@H]1CN(C)C2)c1cccc(C(F)F)c1F [Example 18, N—((R)-1-(3-(difluoromethyl)-2-fluorophenyl)ethyl)-4-fluoro-2-(((1R,5S,6r)-3-methyl-3-azabicyclo[3.1.1]heptan-6-yl)amino)-5-morpholinobenzamide]"
14,26.4 nM,"CC(=O)N1CC2(C1)CN(c1cc(C(=O)N[C@H](C)c3cccc(C(F)(F)F)c3C)c(NC3CCN(C)CC3)cc1F)C2 [Example 20, (R)-5-(6-acetyl-2,6-diazaspiro[3.3]heptan-2-yl)-4-fluoro-N-(1-(2-methyl-3-(trifluoromethyl)phenyl)ethyl)-2-((1-methylpiperidin-4-yl)amino)benzamide]"
15,225 nM,"Cc1c([C@@H](C)NC(=O)c2cc(C3CCOCC3)c(F)cc2NC2CCN(C)CC2)cccc1C(F)(F)F [Example 21, (R)-4-fluoro-N-(1-(2-methyl-3-(trifluoromethyl)phenyl)ethyl)-2-((1-methylpiperidin-4-yl)amino)-5-(tetrahydro-2H-pyran-4-yl)benzamide]"
16,20.6 nM,"CC(=O)N1CCN(c2cc(C(=O)N[C@H](C)c3cccc(C(F)(F)F)c3C)c(NC3CCN(C)CC3)cc2F)CC1 [Example 22, (R)-5-(4-acetylpiperazin-1-yl)-4-fluoro-N-(1-(2-methyl-3-(trifluoromethyl)phenyl)ethyl)-2-((1-methylpiperidin-4-yl)amino)benzamide]"
17,358 nM,"Cc1c([C@@H](C)NC(=O)c2cc(N3CCOCC3)ccc2NC2CCN(C)CC2)cccc1C(F)(F)F [Example 23, (R)—N-(1-(2-methyl-3-(trifluoromethyl)phenyl)ethyl)-2-((1-methylpiperidin-4-yl)amino)-5-morpholinobenzamide]"

row,Compound,IC50
1,"C[C@@H](NC(=O)c1cc(N2CCOCC2)c(C#N)cc1N[C@H]1CN2CCC1CC2)c1cccc(C(F)F)c1F [Example 24, 4-cyano-N—((R)-1-(3-(difluoromethyl)-2-fluorophenyl)ethyl)-5-morpholino-2-(((R)-quinuclidin-3-yl)amino)benzamide]",22.7 nM
2,"C[C@@H](NC(=O)c1cc(N2CCOCC2)c(C#N)cc1N[C@@H]1CN2CCC1CC2)c1cccc(C(F)F)c1F [Example 25, 4-cyano-N—((R)-1-(3-(difluoromethyl)-2-fluorophenyl)ethyl)-5-morpholino-2-(((S)-quinuclidin-3-yl)amino)benzamide]",7.4 nM
